One test deals with L02. The test can be described thus: Cytotoxicity against human L02 cells incubated for 72 hrs by MTT assay. To be noted: L02, 72 h. In kind it is cell-based. On the technique in general: Tetrazolium dyes change colour on reduction, which living cells bring about.
Test [1] deals with SMMC-7721. The test is described as follows: Cytotoxicity against human SMMC7721 cells incubated for 72 hrs by MTT assay. In kind it is functional, cell-based. The following applies: SMMC-7721, 72 h.
The next test relates to HCT-116. The test can be described thus: Cytotoxicity against human HCT116 cells incubated for 72 hrs by MTT assay. The test is classed as functional, cell-based. The following applies: HCT-116, 72 h.
The next test has as its system MCF7. The test can be described thus: Cytotoxicity against human MCF7 cells incubated for 72 hrs by MTT assay. The test is classed as functional, cell-based. The following applies: MCF7, 72 h.
For test [2], the system named is SMMC-7721. The test is described as follows: Induction of apoptosis in human SMMC7721 cells assessed as early apoptotic cells at 50 ug/ml incubated for 72 hrs by Annexin V-FITC/PI staining based flow cytometric analysis (reference value: 1.31 to 1.65%). In kind it is functional. On the technique in general: Flow cytometry measures light scatter and fluorescence of single cells or particles in a stream.

A further test deals with DU-145. The test is described as follows: Cytotoxicity against human DU145 cells incubated for 72 hrs by MTT assay. The test is classed as functional, cell-based. To be noted: DU-145, 72 h.
The next test concerns MCF-10A. The test is described as follows: Cytotoxicity against human MCF10A cells incubated for 72 hrs by MTT assay. In kind it is cell-based.
For test [3], the system named is SMMC-7721. The test can be described thus: Induction of apoptosis in human SMMC7721 cells assessed as late apoptotic cells at 50 ug/ml incubated for 72 hrs by Annexin V-FITC/PI staining based flow cytometric analysis (reference value: 1.63 to 2.82%). The test is classed as functional.
Test [4] concerns SMMC-7721. The test is described as follows: Induction of apoptosis in human SMMC7721 cells assessed as live cells at 50 ug/ml incubated for 72 hrs by Annexin V-FITC/PI staining based flow cytometric analysis (reference value: 94.81 to 96.55%). The test is classed as functional.
Test [5] relates to SMMC-7721. The test can be described thus: Induction of apoptosis in human SMMC7721 cells assessed as necrotic cells at 1 ug/ml incubated for 72 hrs by Annexin V-FITC/PI staining based flow cytometric analysis (reference value: 0.52 to 0.72%). In kind it is functional.
The test system of test [6] is SMMC-7721. The test can be described thus: Induction of apoptosis in human SMMC7721 cells assessed as live cells at 10 ug/ml incubated for 72 hrs by Annexin V-FITC/PI staining based flow cytometric analysis (reference value: 94.81 to 96.55%). In kind it is functional.
Another test concerns RWPE-1. The test is described as follows: Cytotoxicity against human RWPE1 cells incubated for 72 hrs by MTT assay. The test is classed as cell-based. The following applies: RWPE-1, 72 h.
In test [7] the test system is SMMC-7721. The test is described as follows: Induction of apoptosis in human SMMC7721 cells assessed as live cells at 1 ug/ml incubated for 72 hrs by Annexin V-FITC/PI staining based flow cytometric analysis (reference value: 94.81 to 96.55%). In kind it is functional.
The test system of test [8] is SMMC-7721. The test can be described thus: Induction of apoptosis in human SMMC7721 cells assessed as early apoptotic cells at 1 ug/ml incubated for 72 hrs by Annexin V-FITC/PI staining based flow cytometric analysis (reference value: 1.31 to 1.65%). The test is classed as functional.
A further test relates to CCD-18Co. The test can be described thus: Cytotoxicity against human CCD-18Co cells incubated for 72 hrs by MTT assay. The test is classed as cell-based.
The subject of test [9] is SMMC-7721. The test is described as follows: Induction of apoptosis in human SMMC7721 cells assessed as necrotic cells at 10 ug/ml incubated for 72 hrs by Annexin V-FITC/PI staining based flow cytometric analysis (reference value: 0.52 to 0.72%). In kind it is functional.
Test [10] deals with SMMC-7721. The test is described as follows: Induction of apoptosis in human SMMC7721 cells assessed as necrotic cells at 50 ug/ml incubated for 72 hrs by Annexin V-FITC/PI staining based flow cytometric analysis (reference value: 0.52 to 0.72%). The test is classed as functional.
The test system of test [11] is SMMC-7721. The test is described as follows: Induction of apoptosis in human SMMC7721 cells assessed as late apoptotic cells at 1 ug/ml incubated for 72 hrs by Annexin V-FITC/PI staining based flow cytometric analysis (reference value: 1.63 to 2.82%). The test is classed as functional.
Test [12] concerns SMMC-7721. The test is described as follows: Induction of apoptosis in human SMMC7721 cells assessed as late apoptotic cells at 10 ug/ml incubated for 72 hrs by Annexin V-FITC/PI staining based flow cytometric analysis (reference value: 1.63 to 2.82%). The test is classed as functional.
Test [13] concerns SMMC-7721. The test is described as follows: Induction of apoptosis in human SMMC7721 cells assessed as early apoptotic cells at 10 ug/ml incubated for 72 hrs by Annexin V-FITC/PI staining based flow cytometric analysis (reference value: 1.31 to 1.65%). The test is classed as functional.

Where only a bound is given, the exact number is not on record here.

Usually IC50 stands for the concentration that inhibits the measured activity by half. Low readings indicate greater potency in that assay, high ones weaker potency in that assay.

With `C[C@H]1[C@H](N2CCN(C(=S)SCc3ccccc3Cl)CC2)O[C@@H]2O[C@@]3(C)CC[C@H]4[C@H](C)CC[C@@H]1[C@@]24OO3`, the IC50 in the test with L02 is 200 nM; in the test on SMMC-7721 [1], 23.7 nM.
The matching figures for `C[C@H]1[C@H](N2CCN(C(=S)SCc3ccccc3)CC2)O[C@@H]2O[C@@]3(C)CC[C@H]4[C@H](C)CC[C@@H]1[C@@]24OO3`: 300 nM and 26 nM.
For `C[C@H]1[C@H](N2CCN(C(=S)SCc3ccc([N+](=O)[O-])cc3)CC2)O[C@@H]2O[C@@]3(C)CC[C@H]4[C@H](C)CC[C@@H]1[C@@]24OO3` the same measures were 170 nM and 16.7 nM.
For `Cc1ccccc1CSC(=S)N1CCN([C@@H]2O[C@@H]3O[C@@]4(C)CC[C@H]5[C@H](C)CC[C@@H]([C@H]2C)[C@@]35OO4)CC1` the same measures were 250 nM and 11.4 nM.
As to `C[C@H]1[C@H](N2CCN(C(=S)SCc3ccc(Cl)cc3)CC2)O[C@@H]2O[C@@]3(C)CC[C@H]4[C@H](C)CC[C@@H]1[C@@]24OO3`, the IC50 in the test with L02 was 170 nM; in the test on SMMC-7721 [1] it was 28.4 nM.
For `CCCCCCCCCCCCCCCCCCSC(=S)N1CCN([C@@H]2O[C@@H]3O[C@@]4(C)CC[C@H]5[C@H](C)CC[C@@H]([C@H]2C)[C@@]35OO4)CC1` the same measures were 130 nM and 16 nM.
The matching figures for `Cc1ccc(CSC(=S)N2CCN([C@@H]3O[C@@H]4O[C@@]5(C)CC[C@H]6[C@H](C)CC[C@@H]([C@H]3C)[C@@]46OO5)CC2)cc1`: 230 nM and 10.2 nM.
For `C[C@H]1[C@H](N2CCN(C(=S)SCc3ccc4ccccc4c3)CC2)O[C@@H]2O[C@@]3(C)CC[C@H]4[C@H](C)CC[C@@H]1[C@@]24OO3`, the IC50 turned out to be 160 nM in the test on L02 and 24.3 nM in the test with SMMC-7721 [1].
For `CCCCCSC(=S)N1CCN([C@@H]2O[C@@H]3O[C@@]4(C)CC[C@H]5[C@H](C)CC[C@@H]([C@H]2C)[C@@]35OO4)CC1` the same measures were 180 nM and 37.1 nM.
For `C[C@H]1[C@H](N2CCN(C(=S)SCC(=O)OCc3ccccc3)CC2)O[C@@H]2O[C@@]3(C)CC[C@H]4[C@H](C)CC[C@@H]1[C@@]24OO3` the same measures were 150 nM and 33.2 nM.
Consider `Nc1ccn([C@@H]2O[C@H](CO)[C@@H](O)[C@@H]2O)c(=O)n1` [CYTARABINE], for which the results for the IC50 with L02 and in the test with SMMC-7721 [1] were 210 nM and 27.1 nM, respectively.
The matching figures for `CC[C@]1(O)C[C@H]2CN(CCc3c([nH]c4ccccc34)[C@@](C(=O)OC)(c3cc4c(cc3OC)N(C=O)[C@H]3[C@@](O)(C(=O)OC)[C@H](OC(C)=O)[C@]5(CC)C=CCN6CC[C@]43[C@@H]65)C2)C1` [VINCRISTINE]: 60 nM and 10.3 nM.
For the molecule `C[C@H]1[C@H](N2CCN(C(=S)SCc3ccc(C#N)cc3)CC2)O[C@@H]2O[C@@]3(C)CC[C@H]4[C@H](C)CC[C@@H]1[C@@]24OO3`, the IC50 in the test on HCT-116 was determined as 40.2 nM; in the test with MCF7, 13.5 nM; with DU-145 it was 6.3 nM; in the test on L02 it was 180 nM; in the test on MCF-10A, 22.4 nM; in the test with RWPE-1, 10.5 nM. Besides, the IC50 in the test on CCD-18Co was found to be 40.6 nM; in the test on SMMC-7721 [1] it was 2.5 nM. In addition, the Activity with SMMC-7721 [2] was 45.82 - 46.69%; in the test on SMMC-7721 [3], 21.86 - 24.63%; in the test with SMMC-7721 [4], 28.05 - 29.95%; in the test on SMMC-7721 [5], 2.2 - 2.98%; with SMMC-7721 [6], 50.41 - 53.94%; with SMMC-7721 [7] it was 61.22 - 63.68%. The Activity is listed as 26.43 - 27.05% in the test on SMMC-7721 [8]; 3.07 - 4.04% in the test with SMMC-7721 [9]; 1.5 - 1.77% in the test on SMMC-7721 [10]; 6.72 - 9.36% with SMMC-7721 [11]; 12.36 - 14.62% with SMMC-7721 [12]; 30.54 - 31.3% in the test on SMMC-7721 [13].
With `C[C@H]1[C@@H](O)O[C@@H]2O[C@@]3(C)CC[C@H]4[C@H](C)CC[C@@H]1[C@@]24OO3` [ARTENIMOL], the IC50 in the test on L02 is 360 nM; with SMMC-7721 [1] it was more than 100 nM.
For `C[C@H]1[C@H](N2CCN(C(=S)SCc3ccc(Br)cc3)CC2)O[C@@H]2O[C@@]3(C)CC[C@H]4[C@H](C)CC[C@@H]1[C@@]24OO3` the same measures were 150 nM and 7 nM.

Values taken from ChEMBL document CHEMBL4346655, “Synthesis and biological activities of artemisinin-piperazine-dithiocarbamate derivatives” (Eur J Med Chem, 2019).
